The values that follow come from PMC3329717 (Journal of Medicinal Chemistry, 2012).

Data set [1] concerns WEEV replicon.
In data set [2] the test system is WEEV replicon. Kind of data set: microbe, parasite or virus in culture. To be noted: Western equine encephalitis virus, BSR-T7, read-out: IC50, inhibition of luciferase expression in the WEEV replicon assay.
For data set [3], the system named is NSV. It is filed as cell-based, neuroadapted Sindbis virus.
Data set [4] deals with WEEV. It is filed as cell-based, western equine encephalitis virus.
The next data set can be described thus: Mouse liver microsome. The settings on record: Balb-C, liver microsomes, pH 7.5. On the technique in general: Liver microsomes are a subcellular fraction often used to study metabolism.
A short description of data set [5]: Parallel Artificial Membrane Permeability Assay. To be noted: PAMPA.
Data set [6] relates to WEEV. It is filed as cell-based, western equine encephalitis virus. This is another data set of the same source.
Data set [7] relates to NSV. The format is cell-based, neuroadapted Sindbis virus. This is another data set of the same source.
The subject of data set [8] is NSV. On the set-up: species or system mice. The settings on record: mouse, in vivo.
The subject of data set [9] is NSV. On the set-up: species or system mice. The settings on record: mouse, in vivo. This is another data set of the same source.
The subject of data set [10] is NSV. On the set-up: species or system mice. The settings on record: mouse, in vivo. This is another data set of the same source.
In data set [11] the test system is vaccine strain of Venezuelan equine encephalitis virus (VEEV). To be noted: mouse, in vivo; cited from earlier work.
The next data set concerns wild-type VEEV. The settings on record: in vivo; cited from earlier work.

`O=C(NCc1ccccc1)C1CCN(C(=O)c2cc3sccc3n2Cc2ccc(F)cc2)CC1` [Compound 5a, N-benzyl-1-(4-(4-fluorobenzyl)-4H-thieno[3,2-b]pyrrole-5-carbonyl)piperidine-4-carboxamide]: in the data set with WEEV replicon [1], the “CC50/IC50 (therapeutic index)” value is above 3.9. Besides, the IC50 (commonly the concentration needed to halve the response being measured) in the data set with WEEV replicon [2] stood at 25.4 ± 7.3 µM.
For `O=C(NCc1ccccc1)C1CCN(C(=O)c2cc3sccc3n2Cc2ccc(Cl)cc2)CC1` [Compound 5b, N-benzyl-1-(4-(4-chlorobenzyl)-4H-thieno[3,2-b]pyrrole-5-carbonyl)piperidine-4-carboxamide], in the data set with WEEV replicon [1], the “CC50/IC50 (therapeutic index)” value is listed as above 9.9. Further, the “NSV titers (virion production, plaque assay)” value (shortened to “NSV titers”) with NSV [3] is listed as “significantly reduced”. The “WEEV titers (virion production, plaque assay)” value (“WEEV titers” for short) in the data set on WEEV [4] is on record as “significantly reduced”. For the same molecule, in “Mouse liver microsome”, the half-life (in general, the time needed for the level to fall by half in the phase considered) at 1 µM is 1.7 ± 1.7 min. Besides, the apparent permeability (Papp) (in general, a coefficient for how fast a substance crosses the barrier) in [5] was 251 ×10⁻⁶ cm/s. Also, the IC50 in the data set on WEEV replicon [2] is 10.1 ± 2.6 µM.
Regarding `C[C@H](NC(=O)C1CCN(C(=O)c2cc3sccc3n2Cc2ccc(F)cc2)CC1)c1ccccc1` [Compound 5c, (S)-1-(4-(4-fluorobenzyl)-4H-thieno[3,2-b]pyrrole-5-carbonyl)-N-(1-phenylethyl)piperidine-4-carboxamide], the IC50 in the data set with WEEV replicon [2] was above 100 µM.
With `C[C@@H](NC(=O)C1CCN(C(=O)c2cc3sccc3n2Cc2ccc(F)cc2)CC1)c1ccccc1` [Compound 5d, (R)-1-(4-(4-fluorobenzyl)-4H-thieno[3,2-b]pyrrole-5-carbonyl)-N-(1-phenylethyl)piperidine-4-carboxamide], the “CC50/IC50 (therapeutic index)” value with WEEV replicon [1] is on record as 11. Moreover, in the data set on WEEV replicon [2], the IC50 was determined as 8.3 ± 1.3 µM.
As to `C[C@H](c1ccc(F)cc1)n1c(C(=O)N2CCC(C(=O)NCc3ccccc3)CC2)cc2sccc21` [Compound 5e, (R)-N-benzyl-1-(4-(1-(4-fluorophenyl)ethyl)-4H-thieno[3,2-b]pyrrole-5-carbonyl)piperidine-4-carboxamide], the “CC50/IC50 (therapeutic index)” value in the data set with WEEV replicon [1] is given as above 5.4. Moreover, the IC50 with WEEV replicon [2] is 18.4 ± 4.7 µM.
With `C[C@@H](c1ccc(F)cc1)n1c(C(=O)N2CCC(C(=O)NCc3ccccc3)CC2)cc2sccc21` [Compound 5f, (S)-N-benzyl-1-(4-(1-(4-fluorophenyl)ethyl)-4H-thieno[3,2-b]pyrrole-5-carbonyl)piperidine-4-carboxamide], in the data set on WEEV replicon [2], the concentration for half-maximal inhibition (IC50) was above 100 µM.
Regarding `O=C(NCc1ccccc1)C1CCN(C(=O)c2cc3ccccc3n2Cc2ccc(F)cc2)CC1` [Compound 9a, N-benzyl-1-(1-(4-fluorobenzyl)-1H-indole-2-carbonyl)piperidine-4-carboxamide], in the data set with WEEV replicon [1], the “CC50/IC50 (therapeutic index)” value is above 6.7. Besides, in the data set on WEEV replicon [2], the IC50 stood at 14.8 ± 5.8 µM.
Turning to `O=C(NCc1ccccc1)C1CCN(C(=O)c2cc3ccccc3n2Cc2ccc(Cl)cc2)CC1` [Compound 9b, N-benzyl-1-(1-(4-chlorobenzyl)-1H-indole-2-carbonyl)piperidine-4-carboxamide], in the data set on WEEV replicon [1], the “CC50/IC50 (therapeutic index)” value is on record as above 6.5. For the same molecule, the “NSV titers” value in the data set with NSV [3] is on record as “significantly reduced”. Moreover, in the data set with WEEV [4], the “WEEV titers” value was “significantly reduced”. The same molecule gave a half-life at 1 µM in “Mouse liver microsome” of 7.3 ± 3.9 min. In the data set on WEEV replicon [2], the IC50 stood at 15.5 ± 5.6 µM.
For `O=C(NCc1ccccc1)C1CCCN(C(=O)c2cc3ccccc3n2Cc2ccc(Cl)cc2)C1` (stereo not drawn) [Compound 9c, N-benzyl-1-(1-(4-chlorobenzyl)-1H-indole-2-carbonyl)piperidine-3-carboxamide], the “CC50/IC50 (therapeutic index)” value in the data set on WEEV replicon [1] is on record as above 3.3. For the same molecule, the IC50 in the data set on WEEV replicon [2] is 30.6 ± 7.3 µM.
Regarding `O=C(Nc1ccccc1)C1CCN(C(=O)c2cc3ccccc3n2Cc2ccc(Cl)cc2)CC1` [Compound 9d, 1-(1-(4-chlorobenzyl)-1H-indole-2-carbonyl)-N-phenylpiperidine-4-carboxamide], the concentration for half-maximal inhibition (IC50) in the data set with WEEV replicon [2] was above 50 µM.
In the case of `O=C(NCCc1ccccc1)C1CCN(C(=O)c2cc3ccccc3n2Cc2ccc(Cl)cc2)CC1` [Compound 9e, 1-(1-(4-chlorobenzyl)-1H-indole-2-carbonyl)-N-phenethylpiperidine-4-carboxamide], the “CC50/IC50 (therapeutic index)” value in the data set on WEEV replicon [1] is recorded as 4.1. In addition, the IC50 in the data set with WEEV replicon [2] came to 15.2 ± 9.3 µM.
Take `Cc1ccc(CCNC(=O)C2CCN(C(=O)c3cc4ccccc4n3Cc3ccc(Cl)cc3)CC2)cc1` [Compound 9f, 1-(1-(4-chlorobenzyl)-1H-indole-2-carbonyl)-N-(4-methylphenethyl)piperidine-4-carboxamide]: in the data set on WEEV replicon [1], the “CC50/IC50 (therapeutic index)” value is 14. Moreover, in the data set with WEEV replicon [2], the IC50 was found to be 5.5 ± 2.2 µM.
Regarding `C[C@H](NC(=O)C1CCN(C(=O)c2cc3ccccc3n2Cc2ccc(Cl)cc2)CC1)c1ccccc1` [Compound 9g, (S)-1-(1-(4-chlorobenzyl)-1H-indole-2-carbonyl)-N-(1-phenylethyl)piperidine-4-carboxamide], the “NSV titers” value in the data set with NSV [3] was “inactive”. For the same molecule, the “WEEV titers” value in the data set with WEEV [4] is “inactive”. The “Increase in cell viability after WEEV infection (reduction in CPE)” value in the data set on WEEV [6] was “unable to rescue virus-induced CPE”. Besides, in the data set on WEEV replicon [2], the IC50 was above 100 µM. Also, the “Increase in cell viability after NSV infection (reduction in CPE)” value with NSV [7] is “unable to rescue virus-induced CPE”.
With `C[C@@H](NC(=O)C1CCN(C(=O)c2cc3ccccc3n2Cc2ccc(Cl)cc2)CC1)c1ccccc1` [Compound 9h, (R)-1-(1-(4-chlorobenzyl)-1H-indole-2-carbonyl)-N-(1-phenylethyl)piperidine-4-carboxamide], in the data set with NSV [8], the “Viral titers in brain” value is given as “viral titers were lower” and the “Viral titers in spinal cord” value is recorded as “A similar extent of viral inhibition was also observed”. The “CC50/IC50 (therapeutic index)” value in the data set with WEEV replicon [1] came out at 14. Further, the “NSV titers” value in the data set with NSV [3] is given as “significantly reduced”. Further, the “WEEV titers” value in the data set with WEEV [4] is reported as “significantly reduced”. Besides, in “Mouse liver microsome”, the half-life at 1 µM stood at 31 ± 7.1 min. In addition, in the data set on NSV [9], the “Development of severe hind limb paralysis” value was “conferred benefit against the development of severe hind limb paralysis”; the “Pilot survival assays, dose comparison” value is on record as “the higher concentration was more effective”; the “Survival after lethal NSV infection” value is listed as “significantly protected from lethal NSV infection”. The “Neuronal injury in hippocampus (proportion of fluorojade-positive neurons)” value in the data set on NSV [10] was “reduced neuronal injury”. In the data set with WEEV replicon [2], the IC50 was 6.5 ± 1.5 µM.
Take `COc1ccc(CNC(=O)C2CCN(C(=O)c3cc4ccccc4n3Cc3ccc(Cl)cc3)CC2)cc1` [Compound 9i, 1-(1-(4-chlorobenzyl)-1H-indole-2-carbonyl)-N-(4-methoxybenzyl)piperidine-4-carboxamide]: in the data set on WEEV replicon [2], the IC50 is above 50 µM.
`O=C(NCc1cccc(Cl)c1)C1CCN(C(=O)c2cc3ccccc3n2Cc2ccc(Cl)cc2)CC1` [Compound 9j, N-(3-chlorobenzyl)-1-(1-(4-chlorobenzyl)-1H-indole-2-carbonyl)piperidine-4-carboxamide]: the “CC50/IC50 (therapeutic index)” value in the data set on WEEV replicon [1] is above 6.5. Besides, in the data set on WEEV replicon [2], the IC50 is 15.3 ± 9 µM.
As for `O=C(c1cc2ccccc2n1Cc1ccc(Cl)cc1)N1CCC(C(=O)N2CCCCC2)CC1` [Compound 9k, (1-(4-chlorobenzyl)-1H-indol-2-yl)(4-(piperidine-1-carbonyl)piperidin-1-yl)methanone], the “CC50/IC50 (therapeutic index)” value in the data set on WEEV replicon [1] is reported as 5.6. Also, the IC50 in the data set with WEEV replicon [2] stood at 9.2 ± 2.8 µM.
In the same order, the values of `O=C(NCc1ccncc1)C1CCN(C(=O)c2cc3ccccc3n2Cc2ccc(Cl)cc2)CC1` [Compound 9l, 1-(1-(4-chlorobenzyl)-1H-indole-2-carbonyl)-N-(pyridin-4-ylmethyl)piperidine-4-carboxamide] are above 14 and 6.8 ± 1.7 µM.
Take `O=C(NCc1cccnc1)C1CCN(C(=O)c2cc3ccccc3n2Cc2ccc(Cl)cc2)CC1` [Compound 9m, 1-(1-(4-chlorobenzyl)-1H-indole-2-carbonyl)-N-(pyridin-3-ylmethyl)piperidine-4-carboxamide]: the “CC50/IC50 (therapeutic index)” value in the data set with WEEV replicon [1] was above 8.7. In addition, the IC50 in the data set on WEEV replicon [2] is 11.4 ± 0.4 µM.
In the case of `NC(=O)c1ncn([C@@H]2O[C@H](CO)[C@@H](O)[C@H]2O)n1` [Ribavirin, reference compound], the IC50 with WEEV replicon [2] is 16 µM.
Consider (−)-carbodine, for which, in [11], the Disease outcome was “improved outcome” and the “Lowering of peak CNS viral titers” value is “half-log”. Besides, the “Benefit after wild-type VEEV challenge” value with wild-type VEEV was “no benefit”.
